The results in this text go back to PubChem BioAssay (NCI).

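Cultured in 96-well plates, cells were exposed to test compound for 48 hours across five concentrations. GI50 = concentration required for 50% inhibition of growth. TGI: concentration producing complete growth inhibition.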

Among the test systems are A498 renal; EKVX NSCLC; HOP-62 NSCLC; HT29 colon; MDA-MB-435; NCI-H23 lung; OVCAR-3 ovarian; SF-539 CNS; SNB-19 CNS; BT-549 breast.
Holding throughout (test): NCI tumour cell line growth inhibition, 48 h

Regarding `CCOC(=O)c1nc(SC)sc1NC(=O)c1ccc(OC)cc1`, the TGI in the assay on A498 renal was 84.6 µM; in the assay with EKVX NSCLC, greater than 100 µM; with HOP-62 NSCLC, greater than 100 µM; with HT29 colon, greater than 100 µM; with MDA-MB-435, greater than 100 µM; with NCI-H23 lung, greater than 100 µM. Also, the TGI in the assay with OVCAR-3 ovarian is greater than 100 µM; in the assay on SF-539 CNS it was 34.9 µM; in the assay with SNB-19 CNS, greater than 100 µM.
Take `CCOC(=O)c1nc2ccccc2nc1Nc1cc(OC)c(OC)c(OC)c1`: the TGI in the assay with BT-549 breast, in the assay with EKVX NSCLC, in the assay with HOP-62 NSCLC, with HT29 colon, in the assay with MDA-MB-435 and in the assay on NCI-H23 lung was greater than 100 µM throughout. In addition, the TGI in the assay with OVCAR-3 ovarian, with SF-539 CNS and in the assay on SNB-19 CNS was greater than 100 µM in each case.
In the case of `C/C(=N/NC(=S)N1CCCCCC1)c1cccc(/C(C)=N\NC(=S)N2CCCCCC2)n1`, the TGI in the assay on A498 renal is 2.85 µM; in the assay on EKVX NSCLC it was 7.98 µM; in the assay with HOP-62 NSCLC, 3.82 µM; with HT29 colon, 4.65 µM; with MDA-MB-435, 3.36 µM; in the assay on NCI-H23 lung, 5.44 µM. Moreover, the TGI in the assay on OVCAR-3 ovarian turned out to be 2.59 µM; with SF-539 CNS, 3.15 µM; in the assay with SNB-19 CNS, 9.43 µM.
Regarding `Cc1cc2c(cc1Cl)SSc1cc(Cl)c(C)cc1S(=O)(=O)Nc1nc(N)nn1C(O)n1nc(N)nc1NS2(=O)=O`, the TGI with A498 renal, in the assay with BT-549 breast, in the assay on EKVX NSCLC, with HOP-62 NSCLC, in the assay with HT29 colon and in the assay with NCI-H23 lung was greater than 10 µM in each case. Also, the TGI in the assay on OVCAR-3 ovarian, with SF-539 CNS and in the assay on SNB-19 CNS was greater than 10 µM each time.
On to `CCCCCCCCCCCCCOCCOCCOCCCCC(O)CCCCCCCCCC1=C[C@H](C)OC1=O` (stereo partly drawn), for which the TGI was 27.9 µM in the assay with BT-549 breast; greater than 100 µM with HOP-62 NSCLC; 57.6 µM in the assay on HT29 colon; 57.1 µM in the assay with MDA-MB-435; 60 µM in the assay on NCI-H23 lung; 44.2 µM in the assay with OVCAR-3 ovarian. Further, the TGI amounted to 45.3 µM in the assay with SF-539 CNS and 43.7 µM with SNB-19 CNS.
For `CC(C)(C)c1ccc(O)c(C(O)c2ccccn2)c1` (stereo not drawn), the TGI in the assay with BT-549 breast, with EKVX NSCLC, in the assay on HOP-62 NSCLC, in the assay with HT29 colon, in the assay with MDA-MB-435 and in the assay with NCI-H23 lung was greater than 100 µM each time. Also, the TGI with OVCAR-3 ovarian, in the assay with SF-539 CNS and in the assay on SNB-19 CNS was greater than 100 µM throughout.
Take `Cc1cccc(C)c1NC(=S)N/C=C(\C#N)C(N)=O`: the TGI in the assay on EKVX NSCLC, in the assay on HOP-62 NSCLC, with HT29 colon, with MDA-MB-435, in the assay with NCI-H23 lung and with OVCAR-3 ovarian was greater than 100 µM each time. Moreover, the TGI in the assay with SF-539 CNS and in the assay with SNB-19 CNS was greater than 100 µM in each case.
Consider `Cc1cccc(-c2cc(=O)c3cccnc3[nH]2)c1`, for which the TGI with BT-549 breast is greater than 100 µM; with EKVX NSCLC, 87.2 µM; in the assay on HOP-62 NSCLC, greater than 100 µM; with HT29 colon, 2.93 µM; with MDA-MB-435 it was 0.191 µM; in the assay on NCI-H23 lung, greater than 100 µM. The TGI in the assay with OVCAR-3 ovarian, in the assay on SF-539 CNS and in the assay with SNB-19 CNS was greater than 100 µM in each case.
Regarding `CCOC(=O)N1CCC2(CC1)C[C@](Sc1ccccc1)(C(C)=O)[C@H](C)O2`, the TGI with A498 renal, with EKVX NSCLC, in the assay on HOP-62 NSCLC, with HT29 colon, with MDA-MB-435 and in the assay with NCI-H23 lung was greater than 100 µM throughout. The TGI in the assay on OVCAR-3 ovarian, in the assay with SF-539 CNS and in the assay with SNB-19 CNS was greater than 100 µM each time.
Regarding `COc1ccc(/C=C2\C(=O)N(C(=O)c3ccc(NC(C)=O)cc3)N=C2C)cc1OC`, the TGI in the assay on EKVX NSCLC, in the assay with HOP-62 NSCLC, with HT29 colon, with NCI-H23 lung, with OVCAR-3 ovarian and with SF-539 CNS was greater than 100 µM throughout. The compound also returned a TGI with SNB-19 CNS greater than 100 µM.
For the compound `COc1ccc(Nc2nc3ccccc3nc2-c2cccs2)cc1OC`, the TGI with EKVX NSCLC, in the assay on HOP-62 NSCLC, in the assay with HT29 colon, in the assay on MDA-MB-435, with NCI-H23 lung and in the assay with OVCAR-3 ovarian was greater than 10 µM each time. Besides, the TGI in the assay on SF-539 CNS and in the assay with SNB-19 CNS was greater than 10 µM in each case.
For the compound `COc1cc2c(c3nc4ccccc4nc13)-c1ccc(SC)c(=O)cc1[C@@H](NC(C)=O)CC2`, the TGI with A498 renal was greater than 65.1 µM; in the assay on EKVX NSCLC, 0.795 µM; with HOP-62 NSCLC it was greater than 100 µM; with MDA-MB-435, 0.0693 µM; in the assay on NCI-H23 lung it was 0.066 µM; in the assay with OVCAR-3 ovarian, greater than 100 µM. The TGI is 0.0603 µM with SF-539 CNS and greater than 100 µM with SNB-19 CNS.
For `CN1CCN(c2n[nH]c(=O)c3c2nnn3Cc2ccccc2)CC1`, the TGI with BT-549 breast, with EKVX NSCLC, in the assay with HOP-62 NSCLC, with HT29 colon, with MDA-MB-435 and with NCI-H23 lung was greater than 100 µM in each case. Moreover, the TGI with OVCAR-3 ovarian and in the assay with SNB-19 CNS was greater than 100 µM throughout.
On to `O=C1C(NS(=O)(=O)c2ccccc2)=C(n2ccnc2)C(=O)c2ccccc21`, for which the TGI in the assay with BT-549 breast, in the assay on EKVX NSCLC, in the assay with HOP-62 NSCLC, with HT29 colon, with MDA-MB-435 and with NCI-H23 lung was greater than 100 µM throughout. The TGI in the assay on OVCAR-3 ovarian, with SF-539 CNS and in the assay with SNB-19 CNS was greater than 100 µM in each case.
`COC(=O)C12CCCN1CCC2`: the TGI in the assay with BT-549 breast, in the assay on EKVX NSCLC, in the assay with HOP-62 NSCLC, with HT29 colon, in the assay on MDA-MB-435 and in the assay on NCI-H23 lung was greater than 100 µM throughout. Also, the TGI with OVCAR-3 ovarian and in the assay with SNB-19 CNS was greater than 100 µM each time.
With `CCOc1cc2c(cc1OC)c[n+](C)c1c3cc(OC)c(OC)cc3ccc21`, the TGI in the assay on A498 renal, in the assay with EKVX NSCLC, in the assay with HOP-62 NSCLC, in the assay with HT29 colon, with NCI-H23 lung and in the assay with OVCAR-3 ovarian was greater than 100 µM in each case. The TGI with SF-539 CNS and with SNB-19 CNS was greater than 100 µM throughout.
In the case of `Cc1c2ccccc2c(=O)n2c(-c3ccccn3)cccc12`, the TGI in the assay with A498 renal, in the assay with EKVX NSCLC, in the assay on HOP-62 NSCLC, with HT29 colon, in the assay on NCI-H23 lung and in the assay with OVCAR-3 ovarian was greater than 100 µM each time. For the same compound, the TGI with SF-539 CNS and in the assay with SNB-19 CNS was greater than 100 µM each time.
Turning to `CC(C)NC1CCCCC2c3ccccc3C12O` (stereo not drawn), the TGI in the assay on EKVX NSCLC, in the assay on HOP-62 NSCLC, in the assay with HT29 colon, in the assay with NCI-H23 lung and with SNB-19 CNS was greater than 100 µM in each case.
Take `CC(C)C(Sc1nc(-c2ccccc2)c(-c2ccccc2)[nH]1)C(=O)N/N=C/c1ccc(Cl)cc1` (stereo not drawn): the TGI with A498 renal stood at 43.2 µM; with EKVX NSCLC, 67.6 µM; with HOP-62 NSCLC, 42.5 µM; in the assay with HT29 colon, 36.9 µM; in the assay on NCI-H23 lung, 52.8 µM; in the assay on OVCAR-3 ovarian, 35.5 µM. For the same compound, the TGI in the assay on SF-539 CNS is 36.4 µM; in the assay on SNB-19 CNS, greater than 100 µM.
For the compound `Cc1cc(C)c2c(-c3ccccc3)cc(=O)[nH]c2c1`, the TGI with A498 renal, in the assay with EKVX NSCLC, in the assay on HOP-62 NSCLC, in the assay with HT29 colon, in the assay on MDA-MB-435 and in the assay on NCI-H23 lung was greater than 100 µM each time. In the assay on OVCAR-3 ovarian, the TGI was greater than 100 µM.
Take `NC(=O)N/N=C(\Cc1cc(=O)oc2cc(O)ccc12)C(=O)Nc1ccccc1C(N)=O`: the TGI in the assay on BT-549 breast, in the assay on EKVX NSCLC, with HOP-62 NSCLC, in the assay on HT29 colon, in the assay on MDA-MB-435 and in the assay with NCI-H23 lung was greater than 100 µM in each case. The TGI with OVCAR-3 ovarian, in the assay on SF-539 CNS and with SNB-19 CNS was greater than 100 µM each time.
`COC(=O)C12C(=O)CC3CCC1C32C(=O)OC` (stereo not drawn): the TGI in the assay with BT-549 breast, in the assay on EKVX NSCLC, in the assay with HOP-62 NSCLC, in the assay on HT29 colon, in the assay with MDA-MB-435 and with NCI-H23 lung was greater than 100 µM each time. The TGI with OVCAR-3 ovarian, in the assay on SF-539 CNS and with SNB-19 CNS was greater than 100 µM throughout.
In the case of `COc1ccc(-c2nc(-c3nc4cc(Cl)c(Cl)cc4[nH]3)c3ccccn23)cc1`, the GI50 in the assay on A498 renal is 4.2 µM; in the assay on BT-549 breast it was 3.08 µM; in the assay with HT29 colon, 4.42 µM; in the assay on MDA-MB-435, 5.77 µM; in the assay with OVCAR-3 ovarian, 3.18 µM; with SNB-19 CNS it was 2.64 µM. Besides, the TGI with A498 renal is greater than 100 µM; with BT-549 breast, 9.48 µM; in the assay with HT29 colon, greater than 100 µM; in the assay with MDA-MB-435, greater than 100 µM; in the assay with OVCAR-3 ovarian, greater than 100 µM; with SNB-19 CNS it was greater than 100 µM.
